Assay results as given in patent US20130344065A1, “Combination Treatment with VEGF-C Antagonists” (Vegenics Pty Ltd, priority 2010, published 2013).
Values joined by “and” are separate entries in the source; they are usually repeats but may differ in a detail not shown here. Equal values may be shown once.

What was measured:
[1] = test system: metastatic colorectal cancer; details: cited from earlier work
[2] = test system: KP4 human pancreatic tumors; test: KP4 pancreatic xenograft (Example 8); details: VGX-100 40 mg/kg and/or Avastin 10 mg/kg; for % T/C: after 30 days
Description: VGX-100 was administered at 20 or 40 mg/kg for single therapy and at 40/mg/kg for combination therapy.
To initiate the study, 5×10^6 of KP4 cells suspended in 100 μl of a mixture of medium/Matrigel (1:1) were subcutaneously implanted to the nude mice in the right flank region. Cancer cells were implanted into 90 mice. Animals were monitored for tumor growth daily after cell implantation. When tumor volumes reached 80-100 mm^3, mice were randomized into 5 groups of 10 mice each using only mice having tumor volumes closest to the mean value. Mice with tumor volumes too big or too small were excluded from the study. Tumor volumes were measured using the formula V=L×W×H×π/6, where L and W represented the longer and shorter diameters of the tumor and H represented the height of the tumor. The treatment with drugs was initiated on the day after randomization. […] All treatments were administered intraperitoneally twice weekly for 30 days.
Throughout the entire study, tumor volumes were measured twice weekly and body weights once weekly. […] Unscheduled sacrifices were performed if tumor volumes reached>2,000 mm^3, animals lost>25% of their original body weights, tumor ulceration appeared, or mice became moribund. At the end of the experiment, tumors were removed, embedded in Optimal Cutting Temperature (OCT), and stored at −80° C. for IHC analysis. Gross examination was conducted on liver, lung, spleen, kidneys, testes, and prostate. If no abnormal observation was detected on these organs, the tissues were discarded.
Tumor size was measured 2-3 times weekly with calipers. Size of tumors relative to controls is calculated after 30 days of treatment.

[3] = test system: PC-3 human prostate carcinoma xenografts; test: PC-3 xenograft combination therapy (Example 3, first study); details: for Tumor Growth Delay: T-C, evaluation size 750 mg; for % T/C Day 22: VGX-100 40 mg/kg IP, bevacizumab 10 mg/kg IP, docetaxel 10 mg/kg IV, median tumor mass vs control; for % TFS (tumor free survivors): at termination, Day 160; for Complete regression / Partial regression / Tumor free survivor: yes/no; for Total CR / Total PR / Total TFS: number of animals of 10;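 for all read-outs here: subcutaneous PC-3 tumors in male athymic NCr nude mice aged 6-7 weeks, combination agents dosed within 30 min of each other, animals euthanized once tumors exceeded 2 g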
Description: Docetaxel was administered intravenously at 10 mg/kg weekly for three injections.
HIgG1 Isotype control-humanised antibody (6.4-12.36 mg/ml) and VGX-100 (5.53 and 5.75 mg/ml) were provided as frozen colorless stock solutions in Dulbecco's phosphate buffered saline (DPBS) and stored from light at −80° C. The stock solutions were thawed and stored at 4° C. when treatment began. The dosing solutions (40 mg/kg in 0.2 ml/20 g body weight) were prepared by diluting the stock solution with DPBS. The resulting formulations were clear with pH values ranging from 7.02-7.21. The dosing vials were kept on wet ice during dosing, gently pipetted and not aspirated through a needle except during administration. Dosing solutions were prepared weekly in DPBS and stored protected from light at 4° C. while not in use.
Docetaxel (lot no. D9A095) was manufactured by Sanofi-Aventis and obtained from McKesson as a pale yellow solution in 50% EtOH/50% Tween80. It was stored protected from light at 4° C. Docetaxel was diluted as directed on the package insert with the provided diluent (sterile water) to produce a clear and colorless 10 mg/ml stock solution. On each treatment day, a fresh 10 mg/ml stock was prepared and further diluted with water to achieve the appropriate concentration. The resulting solution was clear and colorless with a pH of 7.16.
All test articles were administered within two hours of preparation. For groups receiving combination therapy, the drugs were administered in the order presented in Table 1 and within 30 minutes of one another.
Male NCR(NCRNU-M) athymic mice were obtained from Taconic. They were 6-7 weeks old on Day 1 of the experiment. The mice were fed irradiated Rodent Diet 5053 (LabDiet™) and water ad libitum. The mice were housed in static cages with Bed-O'Cobs™ bedding inside Biobubble® Clean Rooms that provide H.E.P.A filtered air into the bubble environment at 100 complete air changes per hour. All treatments, body weight determinations, and tumor measurements were carried out in the bubble environment. The environment was controlled to a temperature range of 21.1±1.1° C. (70±2° F.) and a humidity range of 30-70%.
Test mice were implanted subcutaneously on Day 0. […] Mice with tumors in excess of 2 g or with ulcerated tumors were euthanized, as were those found in obvious distress or in a moribund condition.
PC-3 cells were obtained from ATCC and expanded using Ham's F-12 media supplemented with 10% fetal bovine serum and 1% penicillin-streptomycin-glutamine in 5% CO2 atmosphere at 37° C. When expansion was complete, the cells were collected using Trypsin (Cell Gro®), the trypsin neutralized, and the cells pooled for implantation. The PC-3 (Passage 10) cell suspension was counted using trypan blue exclusion with a hemacytometer. The cell suspension was reduced to a pellet using an Eppendorf 5810R centrifuge at 1500 rpm (300×g) for 5 minutes at 4° C. A 2.5×10^7 cells/ml suspension was prepared in 50% serum free media and 50% Matrigel®. Pre-injection viability was 97.7%. Test animals were implanted subcutaneously on Day 0 with 5×10^6 cells/animal (0.2 ml) using a 27-gauge needle and syringe. The cell suspension was maintained on wet ice to minimize the loss of viability and inverted frequently to maintain a uniform cell suspension during the inoculation procedure.
Treatments began on Day 8, when the mean estimated tumor mass for all groups in the experiment was 129 mg (range of group means, 123-134 mg). All animals weighed≧19.2 g at the initiation of therapy. Mean group body weights at first treatment were matched (range of group means, 21.5-22.8 g). All animals were dosed according to individual body weight on the day of treatment (0.2 ml/20 g).

[4] = test system: U87MG human glioblastoma tumors; test: U87MG glioblastoma xenograft, combination (Example 7); format: in vivo, nude mice; details: VGX-100 40 mg/kg, bevacizumab 10 mg/kg, administered alone
Description: This experiment was conducted broadly in accordance with Example 3, except that U87MG glioblastoma cells were substituted for PC-3 prostate cancer cells. Cells from a human glioblastoma tumor line (U87MG) were implanted subcutaneously into mice and grown until the tumors reached an average size of approximately 150 mg. […] There were 10 animals per treatment group.

[5] = Mayo Clinic or Roswell Park regimen, newly diagnosed
[6] = tumor doubling time, individual animals
[7] = subjects progressed following 5-FU therapy

Molecule | Time to evaluation size ([3]; 750 mg, individual animals) | Tumor Growth Delay ([3]; same doses) | % T/C Day 22 [3] | % TFS (tumor free survivors) ([3]; same doses) | Td ([3]; group mean) | Td ([3]; group median) | Time to evaluation size ([3]; group median) | Complete regression ([3]; individual animals) | Partial regression ([3]; individual animals) | Tumor free survivor ([3]; individual animals) | Total CR [3] | Total PR [3] | Total TFS [3] | % CR (complete regression) ([3]; same doses) | % PR (partial regression) ([3]; same doses) | Apparent Net Tumor Cell Kill (logs) ([3]; same doses) | Td [3, 6] | also measured
5-FU/leucovorin |  |  |  |  |  |  |  |  |  |  |  |  |  |  |  |  |  | Median survival [1, 5]: 12-14 months; Median time to disease progression [1, 5]: 4-5 months
Bevacizumab: recombinant humanized VEGF-A monoclonal antibody | 36.3 days and 24.4 days and 25.8 days and 33.0 days and 30.5 days and 25.2 days and 25.4 days and 44.3 days and 18.0 days and 22.7 days | 5.6 days | 70% | 0% | 12.2 days | 9.6 days | 25.6 days | no | no | no | 0 | 0 | 0 | 0% | 0% | −4.91 logs | 16.9 days and 7.4 days and 7.5 days and 13.7 days and 16.8 days and 10.6 days and 8.6 days and 27.8 days and 4.8 days and 8.4 days | Mean Tumor Vol. at D30 (mm3) [2]: 596.7 mm3; % T/C ([2]; listed as Avastin): 30.4%; % T/C ([2]; listed as bevacizumab): 30.4%; Time to evaluation size ([3]; group mean): 28.6 days; Tumor regressions ([3]; same doses): No tumor regressions were observed; Effect on tumor growth [4]: only a minor effect
CCc1c2c(nc3ccc(OC(=O)N4CCC(N5CCCCC5)CC4)cc13)-c1cc3c(c(=O)n1C2)COC(=O)[C@]3(O)CC [irinotecan] |  |  |  |  |  |  |  |  |  |  |  |  |  |  |  |  |  | Prolongation of survival vs best supportive care [1, 7]: 2.8 month; Prolongation of survival vs infusional 5-FU [1, 7]: 2.2 month
CC(=O)O[C@@]12CO[C@@H]1C[C@H](O)[C@@]1(C)C(=O)[C@H](O)C3=C(C)[C@@H](OC(=O)[C@H](O)[C@@H](NC(=O)OC(C)(C)C)c4ccccc4)C[C@@](O)([C@@H](OC(=O)c4ccccc4)[C@H]21)C3(C)C [Docetaxel, docetaxel] | 81.0 days (2×) and >160 days (2×) and 62.3 days and 89.1 days and 72.1 days and 69.0 days and 62.5 days and 66.5 days | 56.5 days | 8% | Twenty percent and 20% | 8.8 days | 8.8 days | 76.5 days | yes | no | no (8×) and yes (2×) | 10 | 0 | 2 | 100% | 0% | 1.13 logs | 5.1 days and 8.5 days and 9.4 days and 9.1 days and 13.2 days and 6.5 days and 13.4 days and 5.0 days | % T/C: tumor burden in treatment group compared to control ([3]; at day 160): 82.4%; Time to fold growth EP ([3]; group mean): 86.0 days; Time to fold growth EP ([3]; group median): 69.6 days; Time to fold growth EP ([3]; individual animals): 78.1 days and >160 days (2×) and 57.4 days and 81.6 days and 65.4 days and 58.5 days and 60.0 days and 73.3 days and 65.9 days; Anticancer activity of regimen ([3]; same doses): highly active; Average Survival ([3]; study to day 160): 108.6 days
